Measured values: patent US9085507B2, “Desfesoterodine in the form of a tartaric acid salt” (ratiopharm GmbH, priority 2009, dated 2015)
Counter-ions that a name gives are not always drawn.

How the values were obtained:
[1] = In vitro solubility behaviour; type: physicochemical; settings: for In vitro solubility profile: compared with fesoterodine fumarate
Procedure: The in vitro solubility behaviour of fesoterodine fumarate (crystalline, commercially available), desfesoterodine fumarate in accordance with Comparative Example 1 and desfesoterodine tartrate in accordance with Example 1 of the invention was investigated:
Solubility behaviour scale: • poor: <20 mg/ml • average: 20 to 60 mg/ml • good: >60 to 80 mg/ml • very good: >80 mg/ml

[2] = Stability on storage, stress test; type: physicochemical
Procedure: Further, the stability on storage of desfesoterodine tartrate was determined in a stress test.

[3] = tested on: overactive bladder syndrome; settings: both phase III studies, over placebo; cited from earlier work

| Structure (SMILES) | In vitro solubility profile [1] | In vitro solubility behaviour ([1]; pH 4.5) | In vitro solubility behaviour ([1]; pH 10) | In vitro solubility profile ([1]; listed as desfesoterodine salt of the invention) | Stability on storage ([2]; aqueous solution, pH of 4.5) | Stability on storage ([2]; aqueous solution, pH of 10) | Stability on storage ([2]; solid form) | Clinically relevant outcomes (urge incontinence results/24 h, micturition frequency, median micturition volume) [3] |
| --- | --- | --- | --- | --- | --- | --- | --- | --- |
| CC(C)N(CC[C@H](c1ccccc1)c1cc(CO)ccc1O)C(C)C [Desfesoterodine fumarate, (R)-2-(3-diisopropylamino-1-phenylpropyl)-4-hydroxymethylphenol] | substantially poorer in vitro solubility profile | Poor | Poor | – | – | – | – | – |
| CC(C)N(CC[C@H](c1ccccc1)c1cc(CO)ccc1O)C(C)C [Desfesoterodine tartrate, (R)-2-(3-diisopropylamino-1-phenylpropyl)-4-hydroxymethylphenol] | – | Good | Good | almost identical in vitro solubility profile to that of fesoterodine fumarate | advantageous stability on storage | advantageous stability on storage | advantageous stability on storage | – |
| CC(C)C(=O)Oc1ccc(CO)cc1[C@H](CCN(C(C)C)C(C)C)c1ccccc1 [Fesoterodine fumarate, 2-[(1R)-3-(diisopropylamino)-1-phenylpropyl]-4-(hydroxymethyl)phenyl-isobutyrate] | – | Good | Good | – | – | – | – | – |
| CC(C)C(=O)Oc1ccc(CO)cc1[C@H](CCN(C(C)C)C(C)C)c1ccccc1 [Fesoterodine, 2-[(1R)-3-(diisopropylamino)-1-phenylpropyl]-4-(hydroxymethyl)phenyl-isobutyrate] | – | – | – | – | – | – | – | statistically significant improvements |
